Biological target: T1, ALK5 kinase (Homo sapiens, UniProt P36897)
T1 construct: GST; purchased Thermo Fisher Scientific Solutions
T1 sequence (P36897 34-503): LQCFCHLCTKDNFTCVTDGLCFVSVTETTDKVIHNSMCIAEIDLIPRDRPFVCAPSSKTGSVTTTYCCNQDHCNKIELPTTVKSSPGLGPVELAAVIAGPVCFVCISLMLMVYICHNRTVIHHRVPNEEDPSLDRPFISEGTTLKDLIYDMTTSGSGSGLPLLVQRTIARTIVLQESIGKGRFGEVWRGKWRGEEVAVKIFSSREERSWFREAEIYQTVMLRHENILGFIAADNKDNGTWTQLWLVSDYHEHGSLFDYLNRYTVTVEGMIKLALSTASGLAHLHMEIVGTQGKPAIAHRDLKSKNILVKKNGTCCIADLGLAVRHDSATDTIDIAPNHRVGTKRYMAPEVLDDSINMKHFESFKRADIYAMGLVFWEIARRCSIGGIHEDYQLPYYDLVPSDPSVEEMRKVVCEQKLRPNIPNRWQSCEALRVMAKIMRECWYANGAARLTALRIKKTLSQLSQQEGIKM
Test: Activity inhibition test on ALK5 enzyme (LanthaScreen Eu binding kinase assay)
Details: kinase tracer 178, 60 minutes at room temperature
Procedure, shortened: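 IC50 is the concentration giving 50% inhibition relative to control, taken from fluorescence after 60 min stirring at room temperature. Final mix held kinase 5 nM, Eu-GST binding antibody 2 nM and tracer 178 10 nM. Compounds were serially diluted from 1 μM to 0.0001 μM.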

SMILES	IC50 [nM]
Cc1cccc(-n2nc(C(=O)Nc3ccc(F)c(Cl)c3)cc2-c2ccc3ncnn3c2)n1 [Example 140, 5-([1,2,4]triazolo[1,5-α]pyridin-6-yl)-N-(3-chloro-4-fluorophenyl)-1-(6-methylpyridin-2-yl)-1H-pyrazole-3-carboxyamide]	~10
Cc1cccc(-n2nc(C(=O)Nc3ccc(Cl)c(Cl)c3)cc2-c2ccc3ncnn3c2)n1 [Example 141, 5-([1,2,4]triazolo[1,5-α]pyridin-6-yl)-N-(3,4-dichlorophenyl)-1-(6-methylpyridin-2-yl)-1H-pyrazole-3-carboxyamide]	10 to 100
Cc1cccc(-n2nc(C(=O)Nc3ccc(F)cc3Br)cc2-c2ccc3ncnn3c2)n1 [Example 142, 5-([1,2,4]triazolo[1,5-α]pyridin-6-yl)-N-(2-bromo-4-fluorophenyl)-1-(6-methylpyridin-2-yl)-1H-pyrazole-3-carboxyamide]	10 to 100
CSc1cccc(NC(=O)c2cc(-c3ccc4ncnn4c3)n(-c3cccc(C)n3)n2)c1 [Example 143]	6.6
CSc1ccc(NC(=O)c2cc(-c3ccc4ncnn4c3)n(-c3cccc(C)n3)n2)cc1 [Example 144]	10 to 100
Cc1cccc(-n2nc(C(=O)Nc3cccc([S+](C)[O-])c3)cc2-c2ccc3ncnn3c2)n1 (stereo not drawn) [Example 145, 5-([1,2,4]triazolo[1,5-α]pyridin-6-yl)-N-(3-(methylsulfinyl)phenyl)-1-(6-methylpyridin-2-yl)-1H-pyrazole-3-carboxyamide]	15
Cc1cccc(-n2nc(C(=O)Nc3ccc([S+](C)[O-])cc3)cc2-c2ccc3ncnn3c2)n1 (stereo not drawn) [Example 146, 5-([1,2,4]triazolo[1,5-α]pyridin-6-yl)-N-(4-(methylsulfinyl)phenyl)-1-(6-methylpyridin-2-yl)-1H-pyrazole-3-carboxyamide]	6
Cc1cccc(-n2nc(C(=O)Nc3ccc(S(C)(=O)=O)cc3)cc2-c2ccc3ncnn3c2)n1 [Example 147, 5-([1,2,4]triazolo[1,5-α]pyridin-6-yl)-N-(4-(methylsulfonyl)phenyl)-1-(6-methylpyridin-2-yl)-1H-pyrazole-3-carboxyamide]	3.7
Cc1cccc(-n2nc(C(=O)Nc3ccc(S(N)(=O)=O)cc3)cc2-c2ccc3ncnn3c2)n1 [Example 148, 5-([1,2,4]triazolo[1,5-α]pyridin-6-yl)-N-(4-sulfamoylphenyl)-1-(6-methylpyridin-2-yl)-1H-pyrazole-3-carboxyamide]	8.3
Cc1cccc(-n2nc(C(=O)Nc3ccc(S(C)(=N)=O)cc3)cc2-c2ccc3ncnn3c2)n1 (stereo not drawn) [Example 149, 5-([1,2,4]triazolo[1,5-α]pyridin-6-yl)-N-(4-(S-methylsulfonimidoyl)phenyl)-1-(6-methylpyridin-2-yl)-1H-pyrazole-3-carboxyamide]	7.7
CCCS(=O)(=O)c1ccc(NC(=O)c2cc(-c3ccc4ncnn4c3)n(-c3cccc(C)n3)n2)cc1 [Example 150, 5-([1,2,4]triazolo[1,5-α]pyridin-6-yl)-N-(4-(propylsulfonyl)phenyl)-1-(6-methylpyridin-2-yl)-1H-pyrazole-3-carboxyamide]	4.8
CCCS(=O)(=O)c1ccc(NC(=O)c2cc(-c3ccc4ncnn4c3)n(-c3cccc(C)n3)n2)cc1 [Example 151, 5-([1,2,4]triazolo[1,5-α]pyridin-6-yl)-N-(4-(propylsulfonyl)phenyl)-1-(6-methylpyridin-2-yl)-1H-pyrazole-3-carboxyamide]	2.7
Cc1cccc(-n2nc(C(=O)Nc3ccc(F)nc3)cc2-c2ccc3ncnn3c2)n1 [Example 152, 5-([1,2,4]triazolo[1,5-α]pyridin-6-yl)-N-(6-fluoropyridin-3-yl)-1-(6-methylpyridin-2-yl)-1H-pyrazole-3-carboxyamide]	4.6
Cc1cccc(-n2nc(C(=O)Nc3ccc(Cl)nc3)cc2-c2ccc3ncnn3c2)n1 [Example 153, 5-([1,2,4]triazolo[1,5-α]pyridin-6-yl)-N-(6-chloropyridin-3-yl)-1-(6-methylpyridin-2-yl)-1H-pyrazole-3-carboxyamide]	25
COc1ccc(NC(=O)c2cc(-c3ccc4ncnn4c3)n(-c3cccc(C)n3)n2)cn1 [Example 154, 5-([1,2,4]triazolo[1,5-α]pyridin-6-yl)-N-(6-methoxypyridin-3-yl)-1-(6-methylpyridin-2-yl)-1H-pyrazole-3-carboxyamide]	~10
Cc1cccc(-n2nc(C(=O)NCc3ccccc3F)cc2-c2ccc3ncnn3c2)n1 [Example 155, 5-([1,2,4]triazolo[1,5-α]pyridin-6-yl)-N-(2-fluorobenzyl)-1-(6-methylpyridin-2-yl)-1H-pyrazole-3-carboxyamide]	13

SMILES	IC50 [nM]
Cc1cccc(-n2nc(C(=O)NCc3cccc(F)c3)cc2-c2ccc3ncnn3c2)n1 [Example 156, 5-([1,2,4]triazolo[1,5-α]pyridin-6-yl)-N-(3-fluorobenzyl)-1-(6-methylpyridin-2-yl)-1H-pyrazole-3-carboxyamide]	22
Cc1cccc(-n2nc(C(=O)NCc3ccc(F)cc3)cc2-c2ccc3ncnn3c2)n1 [Example 157, 5-([1,2,4]triazolo[1,5-α]pyridin-6-yl)-N-(4-fluorobenzyl)-1-(6-methylpyridin-2-yl)-1H-pyrazole-3-carboxyamide]	10 to 100
COc1cccc(CNC(=O)c2cc(-c3ccc4ncnn4c3)n(-c3cccc(C)n3)n2)c1 [Example 158, 5-([1,2,4]triazolo[1,5-α]pyridin-6-yl)-N-(3-methoxybenzyl)-1-(6-methylpyridin-2-yl)-1H-pyrazole-3-carboxyamide]	10 to 100
COc1ccc(CNC(=O)c2cc(-c3ccc4ncnn4c3)n(-c3cccc(C)n3)n2)cc1 [Example 159, 5-([1,2,4]triazolo[1,5-α]pyridin-6-yl)-N-(4-methoxybenzyl)-1-(6-methylpyridin-2-yl)-1H-pyrazole-3-carboxyamide]	10 to 100
Cc1cccc(-n2nc(C(=O)NCc3ccc(N(C)C)cc3)cc2-c2ccc3ncnn3c2)n1 [Example 160, 5-([1,2,4]triazolo[1,5-α]pyridin-6-yl)-N-(4-(dimethylamino)benzyl)-1-(6-methylpyridin-2-yl)-1H-pyrazole-3-carboxyamide]	10 to 100
CC(=O)Nc1ccc(CNC(=O)c2cc(-c3ccc4ncnn4c3)n(-c3cccc(C)n3)n2)cc1 [Example 161, 5-([1,2,4]triazolo[1,5-α]pyridin-6-yl)-N-(4-acetamidobenzyl)-1-(6-methylpyridin-2-yl)-1H-pyrazole-3-carboxyamide]	10 to 100
Cc1cccc(-n2nc(C(=O)Nc3cnn(S(C)(=O)=O)c3)cc2-c2ccc3ncnn3c2)n1 [Example 162, 5-([1,2,4]triazolo[1,5-α]pyridin-6-yl)-1-(6-methylpyridin-2-yl)-N-(1-(methylsulfonyl)-1H-pyrazol-4-yl)-1H-pyrazole-3-carboxyamide]	2
COc1ccc(NC(=O)c2cc(-c3ccc4nccnc4c3)n(-c3cccc(C)n3)n2)cc1 [Example 164, N-(4-methoxyphenyl)-1-(6-methylpyridin-2-yl)-5-(quinoxalin-6-yl)-1H-pyrazole-3-carboxyamide]	18
COc1cccc(NC(=O)c2cc(-c3ccc4nccnc4c3)n(-c3cccc(C)n3)n2)c1 [Example 165, N-(3-methoxyphenyl)-1-(6-methylpyridin-2-yl)-5-(quinoxalin-6-yl)-1H-pyrazole-3-carboxyamide]	24
COc1ccccc1NC(=O)c1cc(-c2ccc3nccnc3c2)n(-c2cccc(C)n2)n1 [Example 166, N-(2-methoxyphenyl)-1-(6-methylpyridin-2-yl)-5-(quinoxalin-6-yl)-1H-pyrazole-3-carboxyamide]	~100
COCCOc1ccc(NC(=O)c2cc(-c3ccc4nccnc4c3)n(-c3cccc(C)n3)n2)cc1 [Example 167, N-(4-(2-methoxyethoxy)phenyl)-1-(6-methylpyridin-2-yl)-5-(quinoxalin-6-yl)-1H-pyrazole-3-carboxyamide]	≤ 100
Cc1cccc(-n2nc(C(=O)Nc3ccc4c(c3)OCO4)cc2-c2ccc3nccnc3c2)n1 [Example 168, N-(benzo[d][1,3]dioxol-5-yl)-1-(6-methylpyridin-2-yl)-5-(quinoxalin-6-yl)-1H-pyrazole-3-carboxyamide]	≤ 100
Cc1cccc(-n2nc(C(=O)Nc3ccc4c(c3)OCCO4)cc2-c2ccc3nccnc3c2)n1 [Example 169, N-(2,3-dihydrobenzo[b][1,4]dioxin-6-yl)-1-(6-methylpyridin-2-yl)-5-(quinoxalin-6-yl)-1H-pyrazole-3-carboxyamide]	10 to 100
Cc1cccc(-n2nc(C(=O)Nc3ccc(N(C)C)cc3)cc2-c2ccc3nccnc3c2)n1 [Example 170, N-(4-(dimethylamino)phenyl)-1-(6-methylpyridin-2-yl)-5-(quinoxalin-6-yl)-1H-pyrazole-3-carboxyamide]	< 100
Cc1cccc(-n2nc(C(=O)Nc3ccc(N4CCOCC4)cc3)cc2-c2ccc3nccnc3c2)n1 [Example 171, 1-(6-methylpyridin-2-yl)-N-(4-morpholinophenyl)-5-(quinoxalin-6-yl)-1H-pyrazole-3-carboxyamide]	10 to 100
Cc1cccc(-n2nc(C(=O)Nc3ccc(N4CCN(C)CC4)cc3)cc2-c2ccc3nccnc3c2)n1 [Example 172, N-(4-(4-methylpiperazin-1-yl)phenyl)-1-(6-methylpyridin-2-yl)-5-(quinoxalin-6-yl)-1H-pyrazole-3-carboxyamide]	10 to 100

Reference: patent US10954232B2, “Pyrazole derivative as ALK5 inhibitor and uses thereof” (HANMI PHARMACEUTICAL CO., LTD., priority 2016, dated 2021)
